Source: PMC12518634, “The noncanonical function of liver-type phosphofructokinase potentiates the efficacy of HDAC inhibitors in cancer” (Signal Transduction and Targeted Therapy, 2025)
Read-outs that look alike come from different tables or passages of the source.

Tests used:
[1] = system: 1405R3; assay: High-throughput drug screen, CellTiter-Glo viability, 72 h; type: cell-based, human; set-up: AUC: scale not given here; conditions: 1405R3 DSRT analysis; for AUC: area under the dose-response curve; for MIN: lower asymptote of fitted dose-response curve; for SLOPE: slope of fitted dose-response curve; for EC50: fitted dose-response curve, Min.Conc.tested 1, Max.Conc.tested 10000, CellTiter-Glo, 72 h, read-out: EC50
Method: (§1) The cells were seeded and incubated with a gradient of concentrations of drugs for 72 h, after which the cell viability was assessed (Supplementary Fig. 1a). The drug library primarily comprises epigenetic drugs, including HDAC inhibitors, DNA methyltransferase inhibitors, and histone demethylase inhibitors, as well as conventional chemotherapies and kinase inhibitors (Supplementary Fig. 1b and Supplementary Table 1). […] To identify novel therapeutics against CCA, we conducted a high-throughput screen employing PerkinElmer’s integrated robotic Explorer G3 workstations. […] Following dilution to five specified concentrations, drugs were dispensed into 96-well plates in the sequence detailed in Supplementary Fig. 1a. The CCA cell lines were subsequently plated in 384-well plates at a density of 3000 cells per well in a 20 μL total volume. After a 24-h incubation, the compounds were added to the wells and incubated for 72 h. We then quantified cell viability via the CellTiter-Glo luminescent assay according to the manufacturer’s protocol. Signal detection was carried out on a Synergy2 plate reader operated by Gen5 software (BioTek). For data processing, the raw luminescence data were processed through the Breeze pipeline for curve fitting, yielding quality control metrics (e.g., Z-factors) and drug response parameters (AUC and DSS), as adapted from previous work.[54] Drug responses were evaluated on the basis of the drug sensitivity score (DSS), and a cutoff of ≥10 was used to define efficacy. The complete drug library and screening dataset are available in Supplementary Tables 1-3.
(§2) Supplementary Fig. 1. A high-throughput drug screen to identify drugs targeting CCA. a Schematic representation of the drug screening protocol. […] Each drug was tested at five different concentrations (10, 1, 0.1, 0.01, and 0.001 μM), and each treatment was replicated twice. b Classification of drugs used for screening.

[2] = system: 783C-6; assay: as above; type: cell-based, human; set-up: AUC: scale not given here; conditions: for DSS: DSS calculated from the dose-response curve; for MIN: MIN of the fitted dose-response curve; for AUC: area under the dose-response curve; for SLOPE: slope of the fitted dose-response curve; for EC50: 72 h, read-out: EC50
Method: as §1, §2

[3] = 783C-6 DSRT analysis, CellTiter-Glo viability, fitted dose-response curve, Min.Conc.tested 1, Max.Conc.tested 10000

Row | SMILES | DSS [1] | AUC [1] | MIN [1] | SLOPE [1] | DSS ([2]; 783C-6 DSRT analysis) | MIN ([2]; 783C-6 DSRT analysis) | AUC ([2]; 783C-6 DSRT analysis) | SLOPE ([2]; 783C-6 DSRT analysis) | EC50 [1] | EC50 [2, 3] | EC50 ([1]; Homo sapiens) | EC50 ([2]; Homo sapiens)
1 | c1cncc(-c2cn[nH]n2)c1 [3-TYP] | 0 | 4.8 | 96.9 | -0.1 | 0 | 94.7 | 2.5 | -0.6 |  |  |  | 
2 | Cn1cc(-c2ccc(S(=O)(=O)n3ccc(/C=C/C(=O)Nc4ccccc4N)c3)cc2)cn1 [4SC-202] | 3.9 | 35.8 | 57.9 | -2.3 | 6.7 | 48.6 | 57 | -2.5 | 1420 nM | 780 nM |  | 
3 | O=C(O[C@@H]1Cc2c(O)cc(O)cc2O[C@@H]1c1cc(O)c(O)c(O)c1)c1cc(O)c(O)c(O)c1 [(-)-Epigallocatechin Gallate] | 0 | 0.7 | 97.6 |  | 0 | 75.7 | 22.9 |  |  |  |  | 
4 | O=C(NO)c1cnc(NC2(c3ccccc3)CC2)nc1 [ACY-738] | 5 | 44.6 | 25.2 |  | 5.2 | 24.1 | 46.6 |  |  |  | 2570 nM | 2460 nM
5 | O=C(NO)c1cnc(NC2(c3cccc(F)c3)CCCCC2)nc1 [ACY-775] | 0 | 0.4 | 98.9 | -0.9 | 0 | 97.3 | 2.4 | -0.3 |  |  |  | 
6 | Cc1csc(-c2nnc(Nc3ccc(Oc4ncccc4-c4ccnc(N)n4)cc3)c3ccccc23)c1 [AMG-900] | 0.2 | 29 | 82.3 |  | 4.1 | 63.4 | 52.5 |  |  |  |  | 483 nM
7 | N[C@@H]1CCCN(c2c(/C=C3\SC(=O)NC3=O)cccc2-c2ccccc2)C1 [AZD1208] | 0 | 16 | 87 | -0.2 | 0 | 87.6 | 19.2 | -0.1 |  |  |  | 
8 | CN(C)Cc1c(C(=O)NCCOc2ccc(C(=O)NO)cc2)oc2ccccc12 [Abexinostat] | 6 | 53 | 14.8 |  | 5.3 | 6.1 | 48.2 |  |  |  | 2420 nM | 3130 nM
9 | COc1cc(Nc2ncc3c(n2)-c2ccc(Cl)cc2C(c2c(F)cccc2OC)=NC3)ccc1C(=O)O [Alisertib] | 0.1 | 15.4 | 89 |  | 3.7 | 73.6 | 52.1 |  |  |  |  | 108 nM
10 | CCN1CCN(C(=O)Cc2ccc(Nc3ncc(F)c(Nc4ccc(C(=O)Nc5ccccc5Cl)cc4)n3)cc2)CC1 [Aurora A Inhibitor I] | 3 | 28 | 50 | -2.5 | 4.6 | 32 | 41.2 | -2.5 | 2810 nM | 2510 nM |  | 
11 | CNC(=O)c1ccccc1Sc1ccc2c(/C=C/c3ccccn3)n[nH]c2c1 [Axitinib] | 0 | 6.8 | 91.1 |  | 0 | 90.6 | 2.8 |  |  |  |  | 
12 | Nc1ccccc1NC(=O)c1cnccn1 [BG45] | 0.1 | 36.3 | 83.6 | -0.1 | 2.2 | 83.6 | 49 | -0.3 |  |  |  | 
13 | CCN1CCN(c2ccc(Nc3cc(N(C)C(=O)Nc4c(Cl)c(OC)cc(OC)c4Cl)ncn3)cc2)CC1 [BGJ398] | 5.5 | 50.1 | 7.2 |  | 8 | 7.1 | 70 |  |  |  | 2940 nM | 1770 nM
